Results published in patent US20250188037A1, “N-(PYRROLIDIN-3-YL OR PIPERIDIN-4-YL)ACETAMIDE DERIVATIVES” (Takeda Pharmaceutical Company Limited, priority 2022, published 2025).
pIC50: −log10 of the molar value. Where two headings read alike, the source gives them in different places.

Key:
SSTR4 [1] = target: T1, SSTR4 (Homo sapiens (Human), UniProt P31391); test: SSTR4 I-125 somatostatin competition binding assay; conditions: for SSTR4 Binding pIC50: membranes from CHO-K1 cells overexpressing SSTR4; for IC50: membranes from CHO-K1 cells overexpressing SSTR4, read-out: SSTR4 Binding pIC50 (converted)
Source text: The scintillator sheets are melted to filters using a heat block.

SSTR4 [2] = target: T1, SSTR4; test: Inhibition of forskolin stimulated cAMP in cells overexpressing SSTR4; format: cell-based; conditions: inhibition of forskolin stimulated cAMP in CHO-K1 cells overexpressing SSTR4; read-out: SSTR4 Activity pEC50 (converted)
Method: Inhibition of Forskolin Stimulated cAMP in Cells Overexpressing SSTR4
This cell-based assay measures the ability of compounds to inhibit forskolin stimulated cAMP in CHO-K1 cells overexpressing SSTR4. CHO-K1 cells overexpressing SSTR4 (CHO-SSTR4) are purchased from DiscoveRx (product code 95-0059C2). The CHO-SSTR4 cells are maintained in F12K media with 10% Fetal Bovine Serum (Hyclone), 1% Pen/Strep (Life Technologies), and 800 μg/mL G418 (Life Technologies). […] The next day, the culture media is removed from the cells and the cells are washed (added then removed) with Krebs Ringer Buffer (ZenBio, KRB-1000 mL). […] The cells are incubated in 10 μL compound/stimulation buffer for 30 minutes at room temperature. Cellular cAMP levels are detected with a HTRF LANCE Ultra cAMP kit (Perkin Elmer, catalog number TRF0264).
The assay is performed in accordance with the manufacturer's instructions. […] of diluted Eu—W8044 labeled streptavidin (dilution: 1:50 in cAMP Detection Buffer) is added to each well. Then 5 μL of diluted biotin cAMP (dilution: 1:150 in cAMP Detection Buffer) is added to each well. The plates are covered and allowed to incubate for 60 minutes at room temperature on a shaker. […] The pEC50 values are generated using Activity Base for Screening Data Management.

SSTR1 [3] = target: T2, SSTR1 (Homo sapiens (Human), UniProt P30872);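 also: binding assay on CHO-K1 cell membranes overexpressing SSTR1, incubated 60 min at room temperature, bound fraction collected on filters and read by scintillation counting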
Method: (§1) Membranes from CHO-K1 cells overexpressing SSTR1 are purchased from Perkin Elmer (catalog number ES-520-M400UA). […] Then 10 μg of SSTR1 membranes in 50 μL assay buffer are added per well. The plate is incubated for 60 minutes at room temperature. […] The contents of the assay plate are transferred to filters with a TomTech harvester and washed 5 times with 20 mM HEPES, 100 mM NaCl. […] The scintillator sheets are melted to the filters using a heat block. The filters are then read in a MicroBeta scintillation counter. Binding Ki curves are generated using Activity Base for Screening Data Management and the results are reported as pIC50.

SSTR1 [4] = target: T2, SSTR1; test: biochemical
Method: as §1

T1 sequence (P31391 whole entry): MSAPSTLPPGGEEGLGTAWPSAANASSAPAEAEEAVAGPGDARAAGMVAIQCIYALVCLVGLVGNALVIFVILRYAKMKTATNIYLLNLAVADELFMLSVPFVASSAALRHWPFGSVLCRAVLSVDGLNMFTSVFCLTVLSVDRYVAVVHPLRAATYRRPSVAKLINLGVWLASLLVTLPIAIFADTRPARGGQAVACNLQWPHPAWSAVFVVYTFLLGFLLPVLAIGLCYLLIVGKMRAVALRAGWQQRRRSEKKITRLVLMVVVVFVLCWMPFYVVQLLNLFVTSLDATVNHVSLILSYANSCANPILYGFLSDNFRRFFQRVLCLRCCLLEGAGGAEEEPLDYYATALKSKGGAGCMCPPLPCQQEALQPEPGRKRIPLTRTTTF
T2 sequence (P30872 whole entry): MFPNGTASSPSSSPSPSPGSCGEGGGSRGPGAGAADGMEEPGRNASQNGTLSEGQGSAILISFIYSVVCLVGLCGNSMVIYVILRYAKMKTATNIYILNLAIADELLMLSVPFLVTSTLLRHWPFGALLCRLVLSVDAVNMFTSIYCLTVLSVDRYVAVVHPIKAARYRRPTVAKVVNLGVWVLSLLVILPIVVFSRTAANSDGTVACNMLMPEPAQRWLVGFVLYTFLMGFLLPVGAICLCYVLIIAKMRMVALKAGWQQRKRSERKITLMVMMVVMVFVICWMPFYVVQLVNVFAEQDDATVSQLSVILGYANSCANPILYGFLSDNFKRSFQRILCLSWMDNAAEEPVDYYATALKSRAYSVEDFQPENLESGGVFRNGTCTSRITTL

SSTR4 Binding pIC50 (SSTR4 [1]) | EC50 (SSTR4 [2]) [nM] | pIC50 (SSTR1 [3]) | IC50 (SSTR4 [1]) [nM] | pIC50 (SSTR1 [4]) | Compound
7.13 | 23.4 | 4.37 | – | – | O=C(N[C@H]1CCNC[C@@H]1F)C1(Cc2ccc(Cl)cc2)CC1 [Example 23, 1-(4-chlorobenzyl)-N-((3S,4S)-3-fluoropiperidin-4-yl)cyclopropane-1-carboxamide]
6.56 | 23.4 | 5.33 | – | – | C[C@H]1CN(C)CC[C@@H]1NC(=O)C1(Cc2cccc(Cl)c2)CC1 [Example 36, 1-(3-chlorobenzyl)-N-((3S,4S)-1,3-dimethylpiperidin-4-yl)cyclopropane-1-carboxamide]
– | 57.5 | – | 1320 | – | C[C@H]1C[C@@H](NC(=O)C(F)(F)Oc2ccccc2)CCN1 (relative stereo) [Example 50, 2,2-difluoro-N-(cis-2-methylpiperidin-4-yl)-2-phenoxyacetamide]
6.17 | 47.9 | < 4.30 | – | – | Cc1ccc(OC(F)(F)C(=O)NC2CCNCC2)cc1 [Example 34, 2,2-difluoro-N-(piperidin-4-yl)-2-(p-tolyloxy)acetamide]
7.25 | 10.2 | < 4.30 | – | – | O=C(N[C@H]1CCNC[C@@H]1F)C1(Cc2cccc(Cl)c2)CC1 [Example 27, 1-(3-chlorobenzyl)-N-((3S,4S)-3-fluoropiperidin-4-yl)cyclopropane-1-carboxamide]
7.13 | 5.25 | < 4.30 | – | – | C[C@H]1CNCC[C@@H]1NC(=O)C(F)(F)Oc1cccc(F)c1 [Example 55, 2,2-difluoro-2-(3-fluorophenoxy)-N-((3S,4S)-3-methylpiperidin-4-yl)acetamide]
6.79 | 16.6 | < 4.30 | – | – | C[C@H]1CNCC[C@@H]1NC(=O)C(F)(F)Oc1ccccc1C#N [Example 33, 2-(2-cyanophenoxy)-2,2-difluoro-N-((3S,4S)-3-methylpiperidin-4-yl)acetamide]
7.25 | 1.32 | 4.72 | – | – | C[C@H]1CNCC[C@@H]1NC(=O)C(F)(F)Oc1ccccc1Cl [Example 64, 2-(2-chlorophenoxy)-2,2-difluoro-N-((3S,4S)-3-methylpiperidin-4-yl)acetamide]
7.15 | 14.8 | < 4.30 | – | – | C[C@H]1CNCC[C@@H]1NC(=O)C(F)(F)Cc1ccccc1 [Example 26, 2,2-difluoro-N-((3S,4S)-3-methylpiperidin-4-yl)-3-phenylpropanamide]
7.58 | 2 | 5.33 | – | – | C[C@H]1CNCC[C@@H]1NC(=O)C1(Cc2ccc(Cl)cc2)CC1 [Example 18, 1-(4-chlorobenzyl)-N-((3S,4S)-3-methylpiperidin-4-yl)cyclopropane-1-carboxamide]
6.39 | 67.6 | < 4.30 | – | – | O=C(NC1CCNCC1)C(F)(F)Oc1ccccc1 [Example 14, 2,2-difluoro-2-phenoxy-N-(piperidin-4-yl)acetamide]
6.66 | 26.3 | 5.23 | – | – | C[C@H]1CN(C)CC[C@@H]1NC(=O)C1(Cc2ccc(F)cc2)CC1 [Example 35, N-((3S,4S)-1,3-dimethylpiperidin-4-yl)-1-(4-fluorobenzyl)cyclopropane-1-carboxamide]
– | 12.6 | – | 91.2 | 5.27 | Cc1cccc(CC2(C(=O)N[C@@H]3CN(C)C[C@H]3C(C)C)CC2)c1 (racemic) [Example 3, N-(trans-4-isopropyl-1-methylpyrrolidin-3-yl)-1-(3-methylbenzyl)cyclopropane-1-carboxamide]
6.55 | 31.6 | 5.08 | – | – | Cc1cccc(CC2(C(=O)NC3CN(C)CC3C)CC2)c1 (stereo not drawn) [Example 6, N-(1,4-dimethylpyrrolidin-3-yl)-1-(3-methylbenzyl)cyclopropane-1-carboxamide]
5.53 | 35.5 | < 4.30 | – | – | C[C@@H]1C[C@H](NC(=O)C(F)(F)Oc2ccccc2)CCN1 [Example 51, 2,2-difluoro-N-((2R,4R)-2-methylpiperidin-4-yl)-2-phenoxyacetamide]
6.48 | 18.2 | < 4.30 | – | – | O=C(NC1CCNCC1)C(F)(F)Oc1ccccc1Cl [Example 70, 2-(2-chlorophenoxy)-2,2-difluoro-N-(piperidin-4-yl)acetamide]
7.14 | 1.7 | 4.35 | – | – | Cc1ccccc1OC(F)(F)C(=O)N[C@H]1CCNC[C@@H]1C [Example 56, 2,2-difluoro-N-((3S,4S)-3-methylpiperidin-4-yl)-2-(o-tolyloxy)acetamide]
5.49 | 50.1 | < 4.30 | – | – | N#Cc1ccccc1OC(F)(F)C(=O)NC1CCNCC1 [Example 32, 2-(2-cyanophenoxy)-2,2-difluoro-N-(piperidin-4-yl)acetamide]
– | 70.8 | – | 513 | 4.81 | C[C@@H]1CN(C)CC[C@H]1NC(=O)C1(Cc2ccc(F)cc2)CC1 (racemic) [Example 10, N-(trans-1,3-dimethylpiperidin-4-yl)-1-(4-fluorobenzyl)cyclopropane-1-carboxamide]
7.45 | 2.75 | 5.06 | – | – | C[C@H]1CNCC[C@@H]1NC(=O)C1(Cc2ccc(F)cc2)CC1 [Example 13, 1-(4-fluorobenzyl)-N-((3S,4S)-3-methylpiperidin-4-yl)cyclopropane-1-carboxamide]
5.43 | 91.2 | < 4.30 | – | – | C[C@H]1C[C@@H](NC(=O)C(F)(F)Oc2ccccc2)CCN1 [Example 48, 2,2-difluoro-N-((2S,4S)-2-methylpiperidin-4-yl)-2-phenoxyacetamide]
7.29 | 11.7 | < 4.30 | – | – | COc1cccc(CC2(C(=O)N[C@H]3CCNC[C@@H]3F)CC2)c1 [Example 46, N-((3S,4S)-3-fluoropiperidin-4-yl)-1-(3-methoxybenzyl)cyclopropane-1-carboxamide]
6.77 | 5.01 | 4.33 | – | – | C[C@H]1CNCC[C@@H]1NC(=O)C(F)(F)Oc1ccc(F)cc1 [Example 58, 2,2-difluoro-2-(4-fluorophenoxy)-N-((3S,4S)-3-methylpiperidin-4-yl)acetamide]
– | 57.5 | – | 891 | 4.80 | Cc1ccccc1CC1(C(=O)N[C@@H]2CCN(C)C[C@H]2C)CC1 (racemic) [Example 12, N-(trans-1,3-dimethylpiperidin-4-yl)-1-(2-methylbenzyl)cyclopropane-1-carboxamide]
5.43 | 55 | < 4.30 | – | – | C[C@H]1C[C@H](NC(=O)C(F)(F)Oc2ccccc2)CCN1 [Example 53, 2,2-difluoro-N-((2S,4R)-2-methylpiperidin-4-yl)-2-phenoxyacetamide]
6.53 | 56.2 | < 4.30 | – | – | C[C@@H]1C[C@H](NC(=O)C2(CN(C)c3cccc(Cl)n3)CC2)CCN1C [Example 41, 1-(((6-chloropyridin-2-yl)(methyl)amino)methyl)-N-((2R,4R)-1,2-dimethylpiperidin-4-yl)cyclopropane-1-carboxamide]
6.87 | 63.1 | < 4.30 | – | – | O=C(N[C@H]1CCNC[C@@H]1F)C1(Cc2ccccc2F)CC1 [Example 43, 1-(2-fluorobenzyl)-N-((3S,4S)-3-fluoropiperidin-4-yl)cyclopropane-1-carboxamide]
6.55 | 21.4 | < 4.30 | – | – | C[C@H]1CNCC[C@@H]1NC(=O)C(F)(F)Oc1ccccc1F [Example 54, 2,2-difluoro-2-(2-fluorophenoxy)-N-((3S,4S)-3-methylpiperidin-4-yl)acetamide]
7.23 | 19.5 | < 4.30 | – | – | Cc1ccccc1CC1(C(=O)N[C@H]2CCNC[C@@H]2F)CC1 [Example 24, N-((3S,4S)-3-fluoropiperidin-4-yl)-1-(2-methylbenzyl)cyclopropane-1-carboxamide]
– | 58.9 | – | – | – | O=C(N[C@H]1CCNC[C@@H]1F)C1(Oc2cccc(Cl)c2)CC1 [Example 59, 1-(3-chlorophenoxy)-N-((3S,4S)-3-fluoropiperidin-4-yl)cyclopropane-1-carboxamide]
